Data from US20100004333A1, “COMPOSITIONS AND METHODS FOR TREATING CARDIOVASCULAR DISORDERS” (priority 2004, published 2010).

Legend:
apoE−/− mice = assay: Atherosclerosis in apoE−/− mice: probucol versus DTBP versus BP, 5 months; format: in vivo; conditions: for Atherosclerosis (lesion size) at the arch and descending aorta: 1% probucol, 0.02% BP; for Macrophages lesion area (Mac-3+): FIG. 12a, f; for Plasma cholesterol: FIG. 12c; for Proliferating cells (PCNA+): FIG. 12g; for Aortic content of neutral lipids (cholesterylesters and triglycerides): FIG. 12d
From the text: ApoE−/− mouse model. Four groups of male apoE−/− mice (8-10 weeks, Animal Resources Centre, Perth, Australia) were fed a high fat diet based on Harlan Teklad diet TD88137±1% (wt/wt) probucol (96% purity, a gift from AstraZeneca, Sweden), 0.02% DTBP, or 0.02% BP (Polysciences, Warrington, Pa.) for 5 months. Tissue harvesting and analyses were done as described in Examples 1 and 3, using 15 and 10 mice of each group for biochemical and histological analyses, respectively. Histology and immunohistochemistry. Aortic lesion assessment was carried out at four sites (sinus, arch, thoracic and abdominal aorta) as described in Example 1. Immediately adjacent sections were employed for immunohistochemistry, using Mac-3 (macrophages, dilution 1:200, DAKO), PCNA (cell proliferation, dilution 1:500, DAKO) and anti-rat HO-1 monoclonal antibody (dilution 1:50, Santa Cruz) with avidin-biotin-horseradish peroxidase for signal detection (Vectorstain Elite ABC Kit, Vector Laboratories). Apoptosis was assessed using the TUNEL assay kit (Roche) according to the manufacture's instructions. Digital images were taken for quantitative morphometric analysis. Mac-3^+ areas were determined using Adobe Photoshop V6.0 by tracing. Total cell profiles, TUNEL^+ and PCNA^+ cells were counted manually at high magnification (40× objective). A single operator using coded samples performed all analyses blinded. Heme oxygenase. Heme oxygenase activity was determined in microsomes prepared from homogenized aortic tissue and assessed by HPLC as described in Circulation 2004, 110: 1855-1860. Statistics. All data are expressed as mean±SEM. One-way ANOVA and the student-Newman-Keul's test were used to evaluate differences between groups, with P<0.05 considered significant.

[1] = system: aortic rings from rabbits; assay: HOCl-induced endothelial dysfunction in aortic rings from rabbits fed supplemented diet; format: in vivo, New Zealand White rabbits; conditions: dietary 1% probucol, 0.2% DTBP or 0.02% BP, 4 weeks; for Relaxation to ACh of aortic rings after 400 μM HOCl: FIG. 6A; for Tissue cGMP of aortic rings after 400 μM HOCl and 1 μM ACh: FIG. 6B
Procedure: (§1) All other reagents were of the highest quality available. Buffers were routinely filtered, argon-flushed and stored at 4° C. prior to use. Solutions of HOCl were prepared freshly before use by diluting reagent HOCl (Aldrich) into phosphate buffer (250 mM, pH 7.0) and standardizing with ε235 nm˜100 M^−1cm^−1 (hypochlorous acid) and ε290 nm˜300 M^−1cm^−1 (hypochlorite), as described in Journal of Physical Chemistry 1966, 70:3798-3805. Animals: New Zealand White rabbits (2.5-3 kg) were obtained from a commercial farm (Wauchope, NSW Australia) and housed individually for the entire study period. […] Feed and water were provided ad libitum for a period of 4 weeks judged to be sufficient time for circulating drug levels to reach a maximum (data not shown). […] The local ethics committee approved the study. Vascular reactivity: Perfused rabbit aortas were harvested and vascular reactivity studies performed as described in Circulation 2003, 107:2031-2036. Briefly, within 2 h of isolation, ring segments ˜5 mm in length were mounted in a myobath system (World Precision Instruments, Sarasota, Fla.) containing 20 mL of Krebs solution aerated at 37° C. with 5% CO2(g), and the dilatory response of half maximally norepinephrine pre-constricted rings to incremental doses of ACh (10^−9-10^−5 mol/L) determined. Where indicated, reagent HOCl (final concentration 400 μM) was added to the Krebs solution and the rings incubated for 5 min prior to thorough washing, pre-constriction and assessment of vessel relaxation. In some studies rings were incubated with probucol or DTBP for 10 min, washed thoroughly and then exposed to HOCl prior to assessing endothelium-dependent relaxation. A maximum of three consecutive sequences of constriction/relaxation were performed for each ring. Preparation of Aortic Homogenates: Aortic Rings Used in the Vascular Function Studies were removed and immediately cut into small pieces, frozen in liquid nitrogen, and then pulverized and homogenized as described. An aliquot (50 μL) of homogenate was removed for protein determination (BCA assay, Sigma) and the remainder extracted into methanol/hexane (5:1, v/v), the resulting hexane fraction dried and the residue suspended in isopropanol for analysis of probucol and its oxidation products. For cGMP determinations, aortic segments were treated with vehicle (control) or HOCl (400 μM) before addition of 1 μM ACh in the presence of 200 μM 3-isobutyl-1-methylxanthine and measurement of cGMP in the homogenate using a kit (Cayman Chemical, Ann Arbor, Mich.). Probucol oxidation studies: Probucol is a highly lipophilic compound (partition coefficient between octanol and water=[…]) that readily distributes into lipoproteins. To mimic the biological situation, oxidation reactions were therefore performed with probucol (or DTBP) dissolved in hexane (2 mL) to which aliquots of HOCl were added to give the final concentrations indicated. The heterogeneous mixtures were shaken vigorously at 37° C. for 60 min, then placed on ice after adding 1 mL water, the hexane phase removed, dried under vacuum and resuspended in isopropanol (200 μL) for HPLC analyses (see below). The aqueous phase was analyzed for the content of sulfate anion (SO4^2−) by ion exchange chromatography (see below). Analytical analyses: Probucol, DTBP, BP and DPQ were analyzed by gradient reversed-phase HPLC and quantified by peak area comparison with authentic standards. Under the conditions used, BP, DTBP, probucol and DPQ eluted at 12.5, 19.2, 20.8 and 28.4 min, respectively. Other oxidation products resolved by this HPLC system were also quantified by peak area comparison, using analytically pure samples obtained from semi-preparative (LC-18, 20 mm×25 cm, 5 μm) fractionation of the reaction mixture. Isolated samples were dried under vacuum, re-dissolved to a known concentration and assessed for purity by analytical HPLC (LC-18, 4.6 mm×25 cm, 5 μm) in combination with mass spectrometry (see below). […]

[2] = Stopped-flow kinetics of reaction with HOCl in 70% aqueous ethanol; format: physicochemical; conditions: 70% EtOH, 25° C.
[3] = system: aortic rings from rabbits; format: cell-based, New Zealand White rabbits; conditions: for Protection of aortic rings from HOCl-induced loss of response to ACh: 10 min pre-incubation with 10, 25 or 100 μM, FIG. 7
Procedure: as §1, with “Preparation of Aortic Homogenates: Aortic Rings Used in the Vascular Function Studies were removed and immediately cut into small pieces, frozen in liquid nitrogen, and then pulverized and homogenized as described. An aliquot (50 μL) of homogenate was removed for protein determination (BCA assay, Sigma) and the remainder extracted into methanol/hexane (5:1, v/v), the resulting hexane fraction dried and the residue suspended in isopropanol for analysis of probucol and its oxidation products. For cGMP determinations, aortic segments were treated with vehicle (control) or HOCl (400 μM) before addition of 1 μM ACh in the presence of 200 μM 3-isobutyl-1-methylxanthine and measurement of cGMP in the homogenate using a kit (Cayman Chemical, Ann Arbor, Mich.).” left out, “To mimic the biological situation, oxidation reactions were therefore performed with probucol (or DTBP) dissolved in hexane (2 mL) to which aliquots of HOCl were added to give the final concentrations indicated. The heterogeneous mixtures were shaken vigorously at 37° C. for 60 min, then placed on ice after adding 1 mL water, the hexane phase removed, dried under vacuum and resuspended in isopropanol (200 μL) for HPLC analyses (see below).” left out, “Under the conditions used, BP, DTBP, probucol and DPQ eluted at 12.5, 19.2, 20.8 and 28.4 min, respectively.” left out

[4] = Oxidation of probucol or DTBP in hexane by 1e- and 2e-oxidants (HPLC, ion exchange chromatography); format: physicochemical; conditions: compound 1 mM in hexane, 60 min, 37° C.
[5] = as above; format: physicochemical; conditions: for Depletion: compound 1 mM in hexane, 60 min, 37° C.; for SO4^2− in aqueous phase of reaction mixture: oxidized with 5-mol equivalent HOCl, antioxidant-free mixture 58±5 nmol
Procedure: as §1

Row | Structure (SMILES) | Atherosclerosis (lesion size) at the arch and descending aorta (apoE−/− mice; 0.02% DTBP, 5 months, FIG. 12b) | Macrophages lesion area (Mac-3+) (apoE−/− mice; apoE−/− mice, 5 months) | Plasma cholesterol (apoE−/− mice; apoE−/− mice, 5 months) | Proliferating cells (PCNA+) (apoE−/− mice; apoE−/− mice, 5 months) | Relaxation to ACh of aortic rings after 400 μM HOCl [1] | Tissue cGMP of aortic rings after 400 μM HOCl and 1 μM ACh [1] | Aortic content of neutral lipids (cholesterylesters and triglycerides) (apoE−/− mice; apoE−/− mice, 5 months) | Protection of aortic rings from HOCl-induced loss of response to ACh ([3]; washed, then 400 μM HOCl) | DPQ Yield ([4]; oxidant AAPH 5 mM) [µM] | DPQ Yield ([4]; oxidant Ce^4+ 5 mM) [µM] | Depletion ([4]; oxidant Ce^4+ 5 mM) [%] | DPQ Yield ([4]; oxidant Cu^2+ 5 mM) [µM] | Depletion ([4]; oxidant Cu^2+ 5 mM) [%] | DPQ Yield ([4]; oxidant Fe^2+/H2O2 5 mM) [µM] | Depletion ([4]; oxidant Fe^2+/H2O2 5 mM) [%] | DPQ Yield ([4]; oxidant H2O2 5 mM) [µM] | Depletion ([4]; oxidant H2O2 5 mM) [%] | DPQ Yield ([4]; oxidant HOCl 5 mM) [µM] | DPQ Yield ([4]; oxidant ONOO^− 5 mM) [µM] | Depletion ([4]; oxidant ONOO^− 5 mM) [%] | further results
1 | CC(C)(C)c1cc(-c2cc(C(C)(C)C)c(O)c(C(C)(C)C)c2)cc(C(C)(C)C)c1O [BP, 3,3′,5,5′-tetra-tert-butyl-4,4′-bisphenol] | failed | failed to affect | failed | failed to affect | responded to HOCl indistinguishably from control | ineffective |  |  |  |  |  |  |  |  |  |  |  |  |  |  | 
2 | CC(C)(C)c1cc(SSc2cc(C(C)(C)C)c(O)c(C(C)(C)C)c2)cc(C(C)(C)C)c1O [DTBP, 4,4′-dithiobis(2,6-di-tert-butyl-phenol)] | significantly inhibited | significant decrease | did not increase medium lesion size at the aortic root (FIG. 12b) or affect plasma cholesterol | significant decrease | preserved the vascular function of isolated rings to an extent comparable to that seen with probucol | increase in tissue cGMP | decreased | protected aortic rings from HOCl-induced dysfunction when added in vitro | 0 ± 0 | 89 ± 11 | 16 ± 1 | 0 ± 0 | 0 ± 0 | 4.8 ± 3.7 | 1 ± 0 | 0 ± 0 | 0 ± 0 | 91 ± 8.7 | 1.9 ± 0.6 | 6 ± 1 | Rate constant k for oxidation by HOCl (single rate-determining process) [2]: 0.7±0.1×10^2 M^−1 s^−1; Lesion size at the aortic root (apoE−/− mice; 0.02% DTBP, 5 months, FIG. 12b): did not increase; HDL-cholesterol (apoE−/− mice; apoE−/− mice, 0.02% DTBP, 5 months, FIG. 12h): does not lower HDL-cholesterol; Anti-atherosclerotic activity relative to probucol (apoE−/− mice; judged from aortic drug concentration and lesion inhibition): greater anti-atherosclerotic activity than probucol; DPQ Yield ([4]; oxidant PbO2 5 mM): 145 ± 8.9 µM; Depletion ([4]; oxidant PbO2 5 mM): 99 ± 0.4%; Depletion ([5]; oxidant AAPH 5 mM): 0 ± 0%; Depletion ([5]; oxidant HOCl 5 mM, air): 96 ± 3%; SO4^2− in aqueous phase of reaction mixture [5]: 204 ± 43 nmol
3 | CC(C)(Sc1cc(C(C)(C)C)c(O)c(C(C)(C)C)c1)Sc1cc(C(C)(C)C)c(O)c(C(C)(C)C)c1 [probucol] | significantly inhibited | significant decrease |  | significant decrease | retained responsiveness to ACh | greater content of cGMP | decreased | protected the vessels from HOCl-induced loss of response to ACh in a concentration dependent manner | 0 ± 0 | 78 ± 7.9 | 15 ± 2 | 0.9 ± 0.1 | 2 ± 1 | 8.7 ± 1.7 | 3 ± 1 | 0 ± 0 | 0 ± 0 | 102 ± 11 | 2.1 ± 0.2 | 7 ± 1 | Rate constant k1 for oxidation by HOCl (rapid phase of DPQ accumulation) [2]: 2.7±0.3×10^2 M^−1 s^−1; Rate constant k2 for oxidation by HOCl (slow phase of DPQ accumulation) [2]: 0.7±0.2×10^2 M^−1 s^−1; Concentration at which full protection from HOCl-induced loss of response to ACh was seen ([3]; 10 min pre-incubation, washed, then 400 μM HOCl): 100 µM; Tissue cGMP in response to ACh ([3]; rings pre-treated with 100 μM, FIG. 7B): increased tissue content of cGMP; Depletion ([4]; oxidant HOCl 5 mM, air): 98 ± 4%; DPQ Yield ([4]; oxidant PbO2 5 mM): 92 ± 21 µM; Depletion ([4]; oxidant PbO2 5 mM): > 90%; Depletion ([4]; oxidant PbO2 5 mM, listed as Probucol): 99 ± 1.1%; Depletion ([5]; oxidant AAPH 5 mM): 0 ± 0%; Depletion ([5]; oxidant HOCl 5 mM, air): > 90%; SO4^2− in aqueous phase of reaction mixture [5]: 139 ± 14 nmol
